Source: patent US20230158001A1, “PHARMACEUTICAL COMPOSITION COMPRISING BENZIMIDAZOLE DERIVATIVE COMPOUND” (HK INNO.N CORPORATION, priority 2020, published 2023)
Blank lines part the entries; values can stand above or below the molecule they belong to.

Columns and labels:
[1] = system: naproxen-induced peptic ulcer model; assay: Anti-ulcer activity in animal model of acute peptic ulcer induced by naproxen; format: in vivo, SD rat; details: for ED50: Rattus norvegicus, read-out: ED50 (anti-ulcer efficacy)
Description: Specifically, each of tegoprazan (0.1 to 10 mg/kg) and esomeprazole (0.3 to 30 mg/kg) was orally administered to each SD rat that has fasted for 72 hours.

[2] = Pharmacokinetic interaction of tegoprazan and naproxen, alone or in combination (Cohort 1); format: in vivo, human (healthy adult males); details: for effect of co-administration on pharmacokinetic properties: co-administration of tegoprazan and naproxen compared with administration alone
[3] = Pharmacokinetic interaction of tegoprazan and celecoxib, alone or in combination (Cohort 3); details: for effect of co-administration on pharmacokinetic properties: co-administration of tegoprazan and celecoxib compared with administration alone; for AUC: male, human, in vivo; for Css,max, Geometric LS Mean: 7 days, N = 13
[4] = Pharmacokinetic interaction of tegoprazan and aceclofenac, alone or in combination (Cohort 2); details: for effect of co-administration on pharmacokinetic properties: co-administration of tegoprazan and aceclofenac compared with administration alone; for Css,max, Geometric LS Mean: 7 days, N = 16
Description: (§1) The pharmacokinetic interactions of tegoprazan and aceclofenac when administered alone or in combination were evaluated in healthy adult males.

clinical = assay: clinical; design: dose or concentration left out as unconfirmed
Description: as §1

[5] = tegoprazan, co-administered with naproxen vs alone
[6] = tegoprazan, Treatment A: 50 mg tegoprazan alone once a day
[7] = tegoprazan, co-administered with celecoxib vs alone
[8] = tegoprazan, co-administered with aceclofenac vs alone

AUC ([2]; male, human, in vivo, tegoprazan, Treatment A: 50 mg tegoprazan alone once a day, 7 days, N = 17, read-out: AUCτ, Geometric LS Mean): 2650 ng·h/mL
Css,max, Geometric LS Mean ([2]; tegoprazan, Treatment A: 50 mg tegoprazan alone once a day, 7 days, N = 17): 512.79 ng/mL
Css,max, Geometric LS Mean ([2]; tegoprazan, Treatment C: 50 mg tegoprazan once a day + 500 mg naproxen twice a day, 7 days, N = 17): 505.59 ng/mL
AUCτ, Geometric LS Mean Ratio (Treatment C/Treatment A), Point Estimate [2, 5]: 1.0105
Css,max, Geometric LS Mean Ratio (Treatment C/Treatment A), Point Estimate [2, 5]: 0.9859
AUC ([3]; 50 mg): 2990 ng·h/mL
Css,max, Geometric LS Mean [3, 6]: 663.83 ng/mL
Css,max, Geometric LS Mean ([3]; tegoprazan, Treatment G: 50 mg tegoprazan once a day + 200 mg celecoxib twice a day): 676.24 ng/mL
AUCτ, Geometric LS Mean Ratio (Treatment G/Treatment A), Point Estimate [3, 7]: 1.0111
Css,max, Geometric LS Mean Ratio (Treatment G/Treatment A), Point Estimate [3, 7]: 1.0187
AUC ([4]; male, human, in vivo, 50 mg): 2680 ng·h/mL
Css,max, Geometric LS Mean [4, 6]: 562.13 ng/mL
Css,max, Geometric LS Mean ([4]; tegoprazan, Treatment E: 50 mg tegoprazan once a day + 100 mg aceclofenac twice a day): 529.98 ng/mL
AUCτ, Geometric LS Mean Ratio (Treatment E/Treatment A), Point Estimate [4, 8]: 1.0269
Css,max, Geometric LS Mean Ratio (Treatment E/Treatment A), Point Estimate [4, 8]: 0.9428
Structure (SMILES): Cc1nc2cc(C(=O)N(C)C)cc(O[C@H]3CCOc4cc(F)cc(F)c43)c2[nH]1 [Tegoprazan, (S)-4-(5,7-difluorochroman-4-yloxy)-N,N,2-trimethyl-1H-benzo[d]imidazole-6-carboxamide]
ED50 [1]: 0.123 mg/kg
anti-ulcer activity ([1]; naproxen-induced peptic ulcer model, SD rats, oral 0.1 to 10 mg/kg): excellent anti-ulcer activity
effect of co-administration on pharmacokinetic properties [2]: does not affect the pharmacokinetic properties
effect of co-administration on pharmacokinetic properties [3]: does not affect the pharmacokinetic properties
effect of co-administration on pharmacokinetic properties [4]: does not affect the pharmacokinetic properties

Structure (SMILES): COc1ccc2nc([S@@+]([O-])Cc3ncc(C)c(OC)c3C)[nH]c2c1 [esomeprazole, reference compound]
ED50 [1]: 4.12 mg/kg

Structure (SMILES): Cc1ccc(-c2cc(C(F)(F)F)nn2-c2ccc(S(N)(=O)=O)cc2)cc1 [Celecoxib, celecoxib, reference compound]
Css,max, Geometric LS Mean ([3]; celecoxib, Treatment F: 200 mg celecoxib alone twice a day): 1140 ng/mL
Css,max, Geometric LS Mean ([3]; celecoxib, Treatment G: 50 mg tegoprazan once a day + 200 mg celecoxib twice a day): 1350 ng/mL
effect of co-administration on pharmacokinetic properties [3]: does not affect the pharmacokinetic properties
AUC ([3]; 200 mg): 7800 ng·h/mL

Css,max, Geometric LS Mean ([2]; naproxen, Treatment B: 500 mg naproxen alone twice a day, 7 days, N = 17): 92.34 ng/mL
Css,max, Geometric LS Mean ([2]; naproxen, Treatment C: 50 mg tegoprazan once a day + 500 mg naproxen twice a day, 7 days, N = 17): 95.60 ng/mL
Structure (SMILES): COc1ccc2cc([C@H](C)C(=O)O)ccc2c1 [Naproxen, naproxen, reference compound]
effect of co-administration on pharmacokinetic properties [2]: does not affect the pharmacokinetic properties

AUC (clinical): 20100 ng·h/mL
Structure (SMILES): O=C(O)COC(=O)Cc1ccccc1Nc1c(Cl)cccc1Cl [Aceclofenac, aceclofenac, reference compound]
effect of co-administration on pharmacokinetic properties [4]: does not affect the pharmacokinetic properties
